Results as given in ChEMBL document CHEMBL5634133, “Indirubin derivatives as bifunctional molecules inducing DNA damage and targeting PARP for the treatment of cancer” (Eur J Med Chem, 2023).

Columns and labels:
Assay type in all cases: functional, cell-based
MV4-11 = experiment: Antiproliferative activity against human MV4-11 cells assessed as inhibition of cell viability incubated for 72 hrs by CCK8 assay; details: MV4-11, 72 h
A549 = experiment: Antiproliferative activity against human A549 cells assessed as inhibition of cell viability incubated for 72 hrs by CCK8 assay; details: A549, 72 h
NCM460 = experiment: Antiproliferative activity against human NCM460 cells assessed as inhibition of cell viability incubated for 72 hrs by CCK8 assay; details: NCM460, 72 h
HCT-116 = experiment: Antiproliferative activity against human HCT-116 cells assessed as inhibition of cell viability incubated for 72 hrs by CCK8 assay; details: HCT-116, 72 h
MCF7 = experiment: Antiproliferative activity against human MCF7 cells assessed as inhibition of cell viability incubated for 72 hrs by CCK8 assay; details: MCF7, 72 h

| IC50 (MV4-11) [µM] | IC50 (A549) [µM] | IC50 (HCT-116) [µM] | IC50 (MCF7) [µM] | Structure (SMILES) | IC50 (NCM460) [µM] |
| --- | --- | --- | --- | --- | --- |
| 11.7 | 4.41 | 3.1 | 1.82 | O=C1Nc2ccccc2/C1=C1/Nc2ccccc2/C1=N\OCCCCNC(=O)c1cc(Cc2n[nH]c(=O)c3ccccc23)ccc1F | 8.04 |
| 47 | > 50 | 29.4 | > 50 | NC(=O)c1cccc2cn(-c3ccc([C@@H]4CCCN(C(=O)CCCCCO/N=C5/C(=C6/C(=O)Nc7ccccc76)Nc6ccccc65)C4)cc3)nc12 | > 60 |
| > 50 | > 50 | 25.5 | > 50 | O=C1Nc2ccccc2/C1=C1/Nc2ccccc2/C1=N\OCCCCCNC(=O)c1cc(Cc2n[nH]c(=O)c3ccccc23)ccc1F | > 60 |
| 39.6 | 49.1 | 31.3 | 47.3 | NC(=O)c1cccc2cn(-c3ccc([C@@H]4CCCN(C(=O)c5ccc(CO/N=C6/C(=C7/C(=O)Nc8ccccc87)Nc7ccccc76)cc5)C4)cc3)nc12 | > 60 |
| > 50 | > 50 | > 50 | > 50 | NC(=O)c1cccc2cn(-c3ccc([C@@H]4CCCN(C(=O)CCCCCCO/N=C5/C(=C6/C(=O)Nc7ccccc76)Nc6ccccc65)C4)cc3)nc12 | > 60 |
| > 50 | > 50 | > 50 | > 50 | NC(=O)c1cccc2cn(-c3ccc([C@@H]4CCCN(C(=O)CCCCCCCO/N=C5/C(=C6/C(=O)Nc7ccccc76)Nc6ccccc65)C4)cc3)nc12 | > 60 |
| > 50 | > 50 | 39.2 | > 50 | O=C1Nc2ccccc2/C1=C1/Nc2ccccc2/C1=N\OCCCCCCC(=O)N1CCN(C(=O)c2ccc(Cc3n[nH]c(=O)c4ccccc34)cc2F)CC1 | > 60 |
| 14.9 | 8.22 | 13.7 | 6.89 | O=C1Nc2ccccc2/C1=C1/Nc2ccccc2/C1=N\OCCCNC(=O)c1cc(Cc2n[nH]c(=O)c3ccccc23)ccc1F | 9.37 |
| > 50 | > 50 | 43.9 | > 50 | O=C1Nc2ccccc2/C1=C1/Nc2ccccc2/C1=N\OCCCCCCCC(=O)N1CCN(C(=O)c2ccc(Cc3n[nH]c(=O)c4ccccc34)cc2F)CC1 | > 60 |
| > 50 | > 50 | 32.4 | > 50 | O=C1Nc2ccccc2/C1=C1/Nc2ccccc2/C1=N\OCCCCCC(=O)N1CCN(C(=O)c2ccc(Cc3n[nH]c(=O)c4ccccc34)cc2F)CC1 | > 60 |
| > 50 | > 50 | 47.2 | > 50 | O=C1Nc2ccccc2/C1=C1/Nc2ccccc2/C1=N\OCCCCCCNC(=O)c1cc(Cc2n[nH]c(=O)c3ccccc23)ccc1F | > 60 |
| 38.7 | 37.6 | 21.1 | 44.3 | O=C1Nc2ccccc2/C1=C1/Nc2ccccc2/C1=N\OCCCCC(=O)N1CCN(C(=O)c2ccc(Cc3n[nH]c(=O)c4ccccc34)cc2F)CC1 | > 60 |
| 47.5 | > 50 | 45 | > 50 | O=C1Nc2ccccc2/C1=C1/Nc2ccccc2/C1=N\OCC1CCN(C(=O)c2cc(Cc3n[nH]c(=O)c4ccccc34)ccc2F)CC1 | > 60 |
| > 50 | > 50 | > 50 | > 50 | O=C1Nc2ccccc2/C1=C1/Nc2ccccc2/C1=N\OCCCCCCCNC(=O)c1cc(Cc2n[nH]c(=O)c3ccccc23)ccc1F | > 60 |
| 36.2 | 48.2 | 27.3 | 41.9 | NC(=O)c1cccc2cn(-c3ccc([C@@H]4CCCN(C(=O)CCCCO/N=C5/C(=C6/C(=O)Nc7ccccc76)Nc6ccccc65)C4)cc3)nc12 | > 60 |
